Assay results published in US9475815B2, “Substituted benzothienyl-pyrrolotriazines and uses thereof” (Bayer Intellectual Property GmbH, priority 2012, dated 2016).
Where a name gives a salt, the structure may show the parent alone.

Assays:
human FGFR-3 = human FGFR-3 (Homo sapiens (Human), UniProt P22607); assay: FGFR-3 kinase assay (TR-FRET); type: biochemical; details: 10 μM ATP, 15 min pre-incubation with enzyme
human mTOR = human mTOR (Homo sapiens (Human), UniProt P42345); assay: mTOR kinase assay (TR-FRET, for comparative purposes); type: biochemical; details: for inhibition at 1 µM: read-out: mTOR % inhibition @ 1 μM, 1 μM test compound, 40 μM ATP, mean values
human mTOR, sequence (P42345 1360-2549): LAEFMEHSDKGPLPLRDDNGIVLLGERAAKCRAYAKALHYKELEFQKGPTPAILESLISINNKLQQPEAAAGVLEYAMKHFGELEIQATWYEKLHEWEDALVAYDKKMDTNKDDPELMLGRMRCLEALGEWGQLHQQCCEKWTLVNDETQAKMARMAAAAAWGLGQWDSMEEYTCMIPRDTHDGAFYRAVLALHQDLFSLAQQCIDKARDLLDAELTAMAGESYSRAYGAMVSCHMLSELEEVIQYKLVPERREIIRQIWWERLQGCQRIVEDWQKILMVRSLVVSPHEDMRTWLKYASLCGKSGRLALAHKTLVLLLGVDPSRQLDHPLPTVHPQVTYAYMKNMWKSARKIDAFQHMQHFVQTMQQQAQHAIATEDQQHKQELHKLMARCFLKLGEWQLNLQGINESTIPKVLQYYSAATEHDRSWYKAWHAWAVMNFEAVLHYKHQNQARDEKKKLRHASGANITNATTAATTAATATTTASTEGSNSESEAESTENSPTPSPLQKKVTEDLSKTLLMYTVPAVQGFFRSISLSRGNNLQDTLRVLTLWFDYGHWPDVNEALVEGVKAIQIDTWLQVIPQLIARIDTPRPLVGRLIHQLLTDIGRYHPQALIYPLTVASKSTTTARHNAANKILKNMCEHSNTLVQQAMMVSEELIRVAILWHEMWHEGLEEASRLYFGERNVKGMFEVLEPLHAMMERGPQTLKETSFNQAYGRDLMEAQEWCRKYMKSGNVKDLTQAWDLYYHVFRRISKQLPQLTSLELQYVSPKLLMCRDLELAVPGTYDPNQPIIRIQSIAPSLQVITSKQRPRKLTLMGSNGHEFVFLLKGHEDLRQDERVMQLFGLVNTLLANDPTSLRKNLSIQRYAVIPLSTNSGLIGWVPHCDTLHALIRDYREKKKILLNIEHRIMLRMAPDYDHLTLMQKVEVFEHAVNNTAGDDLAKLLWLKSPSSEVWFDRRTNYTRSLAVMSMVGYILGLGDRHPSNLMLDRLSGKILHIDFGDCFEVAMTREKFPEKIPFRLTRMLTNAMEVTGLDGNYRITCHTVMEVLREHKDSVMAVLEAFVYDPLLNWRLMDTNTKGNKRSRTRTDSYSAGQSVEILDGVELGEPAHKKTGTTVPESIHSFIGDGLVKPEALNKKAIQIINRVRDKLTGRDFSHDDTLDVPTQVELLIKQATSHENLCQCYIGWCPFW
Method: mTOR inhibitory activity of the compounds of the present invention was quantified employing the TR-FRET based mTOR assay as described in the following paragraphs:
Test compounds were dissolved in DMSO to generate 10 mM stock solutions. These solutions were first 10-fold diluted by 100% DMSO to get 1 mM solutions in 100% DMSO, then 100-fold diluted by 50% DMSO to get 10 μM solutions in 50% DMSO.
(final concentration in the 10 μl assay volume=1 nM) in FRET buffer.
For this, the fluorescence emissions at 495 nm and 520 nm after excitation at 340 nm was measured in an Envision 2104 multilabel reader (Perkin-Elmer).

human FGFR-1 = human FGFR-1 (Homo sapiens, UniProt P11362); assay: FGFR-1 high ATP kinase assay (TR-FRET)
human FGFR-1, sequence (P11362 22-822 limits assumed): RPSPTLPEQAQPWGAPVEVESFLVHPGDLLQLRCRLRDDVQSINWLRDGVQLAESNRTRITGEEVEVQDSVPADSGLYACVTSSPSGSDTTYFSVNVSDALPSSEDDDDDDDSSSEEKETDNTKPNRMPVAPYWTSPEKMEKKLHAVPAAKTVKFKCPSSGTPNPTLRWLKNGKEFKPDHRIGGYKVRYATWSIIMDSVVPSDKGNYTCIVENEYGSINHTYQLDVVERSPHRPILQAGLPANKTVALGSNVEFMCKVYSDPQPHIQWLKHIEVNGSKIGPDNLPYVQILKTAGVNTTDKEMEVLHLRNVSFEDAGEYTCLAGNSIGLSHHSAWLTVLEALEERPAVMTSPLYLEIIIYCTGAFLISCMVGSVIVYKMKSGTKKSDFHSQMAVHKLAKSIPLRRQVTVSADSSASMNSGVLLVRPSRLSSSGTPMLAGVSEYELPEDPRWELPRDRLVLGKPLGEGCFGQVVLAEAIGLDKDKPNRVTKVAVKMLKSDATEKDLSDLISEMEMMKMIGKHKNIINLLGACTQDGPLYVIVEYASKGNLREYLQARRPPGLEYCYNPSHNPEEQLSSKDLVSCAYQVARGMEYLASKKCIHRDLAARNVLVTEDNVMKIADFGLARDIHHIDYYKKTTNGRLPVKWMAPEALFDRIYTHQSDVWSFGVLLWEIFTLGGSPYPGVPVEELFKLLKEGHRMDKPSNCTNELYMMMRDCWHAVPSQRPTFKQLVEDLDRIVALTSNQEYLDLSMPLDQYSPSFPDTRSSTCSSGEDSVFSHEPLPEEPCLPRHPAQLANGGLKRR

human FGFR-3, sequence (P22607 397-806): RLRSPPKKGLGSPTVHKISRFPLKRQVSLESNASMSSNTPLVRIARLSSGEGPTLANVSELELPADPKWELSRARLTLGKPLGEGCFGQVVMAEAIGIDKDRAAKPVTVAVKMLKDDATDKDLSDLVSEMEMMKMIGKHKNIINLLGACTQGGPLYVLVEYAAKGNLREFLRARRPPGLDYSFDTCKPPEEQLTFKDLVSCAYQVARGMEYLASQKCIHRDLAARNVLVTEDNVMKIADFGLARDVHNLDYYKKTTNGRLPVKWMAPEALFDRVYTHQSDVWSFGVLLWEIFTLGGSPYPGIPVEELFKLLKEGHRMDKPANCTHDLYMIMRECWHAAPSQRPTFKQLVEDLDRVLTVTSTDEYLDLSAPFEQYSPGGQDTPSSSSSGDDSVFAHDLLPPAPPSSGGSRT

| Structure (SMILES) | IC50 (human FGFR-3) | inhibition at 1 µM (human mTOR) | IC50 (human FGFR-1) | mTOR % inhibition @ 1 μM (human mTOR; 1 μM test compound, 40 μM ATP, mean values) |
| --- | --- | --- | --- | --- |
| COc1cc(C)cc2cc(-c3cc(CN4CNC(=O)C4)n4ncnc(N)c34)sc12 [Example 63] | 34.5 nM | 26% | – | – |
| Nc1nccn2c(C3CCN(C(=O)c4ccsc4)CC3)nc(-c3cc4ccccc4s3)c12 [WO 2007/061737 Example 157, reference compound] | 2300 nM | – | 3000 nM | – |
| COc1cc(C)cc2cc(-c3cc(CN[C@H]4CC[C@@H](N(C)C)CC4)n4ncnc(N)c34)sc12 [Example 87] | 29.1 nM | 21.9% | 13.2 nM | – |
| COc1cc(C)cc2cc(-c3cc(CN4CCNC(C)C4)n4ncnc(N)c34)sc12 (stereo not shown) [Example 51] | – | 0.9% | 41.3 nM | – |
| COc1cc(C)cc2cc(-c3cc(CNC4CCS(=O)(=O)C4)n4ncnc(N)c34)sc12 (stereo not shown) [Example 78] | 95.8 nM | 35.6% | 86.6 nM | – |
| COc1cc(C)cc2cc(-c3cc(CNCC(C)(C)N4CCOCC4)n4ncnc(N)c34)sc12 [Example 75] | 115 nM | 18.6% | 74.3 nM | – |
| COc1cc(C)cc2cc(-c3cc(CNC4CCN(C)CC4)n4ncnc(N)c34)sc12 [Example 69] | 59.9 nM | 4.6% | 59.5 nM | – |
| CCC(N)COCc1cc(-c2cc3cc(C)cc(OC)c3s2)c2c(N)ncnn12 (stereo not shown) [Example 112] | 102 nM | 8.8% | 67.2 nM | – |
| COc1cc(C)cc2cc(-c3cc(CN4CCC5CN(C)CC54)n4ncnc(N)c34)sc12 (stereo not shown) [Example 24] | 119 nM | 17.3% | 34.1 nM | – |
| COc1cc(C)cc2cc(-c3cc(CNCCO)n4ncnc(N)c34)sc12 [Example 72] | 47.2 nM | – | 65 nM | no inhib. effect detect. |
| CCN1CCN(Cc2cc(-c3cc4cc(C)cc(OC)c4s3)c3c(N)ncnn23)CC1 [Example 13, 7-[(4-Ethylpiperazin-1-yl)methyl]-5-(7-methoxy-5-methyl-1-benzothiophen-2-yl)pyrrole[2,1-f]-[1,2,4]triazin-4-amine formiate] | – | 25.2% | 93.6 nM | – |
| COc1cc(C)cc2cc(-c3cc(C(=O)N4CCNC(C(N)=O)C4)n4ncnc(N)c34)sc12 (stereo not shown) [Example 102] | 89.6 nM | 12.8% | 48.8 nM | – |
| COc1cc(C)cc2cc(-c3cc(CN4CCCC4c4ccc(C)cc4)n4ncnc(N)c34)sc12 (stereo not shown) [Example 79] | 48.6 nM | 16.7% | 93 nM | – |
| COc1cc(C)cc2cc(-c3cc(CN4CCN(C(=O)CCC(N)=O)CC4)n4ncnc(N)c34)sc12 [Example 95, 4-(4-{[4-Amino-5-(7-methoxy-5-methyl-1-benzothiophen-2-yl)pyrrolo[2,1-f][1,2,4]triazin-7-yl]-methyl}piperazin-1-yl)-4-oxobutanamide dihydrochloride] | – | 40.3% | 95.7 nM | – |
| COc1cc(C)cc2cc(-c3cc(CN4CC(C)NCC4C)n4ncnc(N)c34)sc12 (stereo not shown) [Example 44] | – | 10.8% | 38.8 nM | – |
| COc1cc(C)cc2cc(-c3cc(CNCCNC(N)=O)n4ncnc(N)c34)sc12 [Example 30] | – | 16.2% | 54.2 nM | – |
| COc1cc(C)cc2cc(-c3cc(CN(C)CCCN(C)C)n4ncnc(N)c34)sc12 [Example 52] | – | 7.3% | 87.8 nM | – |
| COc1cc(C)cc2cc(-c3cc(CNC4CCC(N)C4)n4ncnc(N)c34)sc12 (stereo not shown) [Example 40] | – | 15% | 63.8 nM | – |
| COc1cccc2cc(-c3cc(CN4CCNCC4)n4ncnc(N)c34)sc12 [Example 3, 5-(7-Methoxy-1-benzothiophen-2-yl)-7-(piperazin-1-ylmethyl)pyrrolo[2,1-f][1,2,4]triazin-4-amine] | – | 12.2% | 92.8 nM | – |
| Nc1nccn2c(C3CCC3)nc(-c3cc4ccccc4s3)c12 [WO 2007/061737 Example 120, reference compound] | 506 nM | – | – | – |
| COc1cc(C)cc2cc(-c3cc(CNCCNC(C)(C)C)n4ncnc(N)c34)sc12 [Example 34] | – | 4.9% | 99.3 nM | – |

| Structure (SMILES) | IC50 (human FGFR-3) | inhibition at 1 µM (human mTOR) | IC50 (human FGFR-1) | mTOR % inhibition @ 1 μM (human mTOR; 1 μM test compound, 40 μM ATP, mean values) |
| --- | --- | --- | --- | --- |
| COc1cc(C)cc2cc(-c3cc(CN4CCNC(c5cccs5)C4)n4ncnc(N)c34)sc12 (stereo not shown) [Example 35] | – | 34% | 16.4 nM | – |
| COc1cc(C)cc2cc(-c3cc(CN4C[C@@H]5CCCN[C@@H]5C4)n4ncnc(N)c34)sc12 [Example 47] | – | 29% | 25.2 nM | – |
| COc1cc(C)cc2cc(-c3cc(CN4CCN(C(=O)C5CC5)CC4)n4ncnc(N)c34)sc12 [Example 93, (4-{[4-Amino-5-(7-methoxy-5-methyl-1-benzothiophen-2-yl)pyrrolo[2,1-f][1,2,4]triazin-7-yl]-methyl}piperazin-1-yl)(cyclopropyl)methanone] | – | 47.2% | 67 nM | – |
| COc1cc(C)cc2cc(-c3cc(CN4CCN5CCCC5C4)n4ncnc(N)c34)sc12 (stereo not shown) [Example 50] | – | 3.4% | 59.3 nM | – |
| COc1cc(C)cc2cc(-c3cc(CNCCN)n4ncnc(N)c34)sc12 [Example 32] | – | 41.3% | 23.3 nM | – |
| COc1cc(C)cc2cc(-c3cc(COCCN(C)C)n4ncnc(N)c34)sc12 [Example 108, 7-{[2-(Dimethylamino)ethoxy]methyl}-5-(7-methoxy-5-methyl-1-benzothiophen-2-yl)pyrrolo-[2,1-f][1,2,4]triazin-4-amine dihydrochloride] | – | 7.1% | 97.6 nM | – |
| Nc1nccn2c(C3CCC3)nc(-c3ccc4sccc4c3)c12 [WO 2007/061737 Example 4, reference compound] | 2400 nM | – | – | – |
| COc1cc(C)cc2cc(-c3cc(CN4CCNC(=O)C4C)n4ncnc(N)c34)sc12 (stereo not shown) [Example 39] | – | 21.4% | 57.1 nM | – |
| COc1cc(C)cc2cc(-c3cc(CN4CCN(CCO)CC4)n4ncnc(N)c34)sc12 [Example 25] | – | 10.2% | 73.3 nM | – |
| CNCCNCc1cc(-c2cc3cc(C)cc(OC)c3s2)c2c(N)ncnn12 [Example 29] | – | 2.4% | 50.4 nM | – |
| Cc1c(-c2nc(C3CCN(C(=O)c4ccsc4)CC3)n3ccnc(N)c23)sc2ccccc12 [WO 2007/061737 Example 209, reference compound] | 786 nM | – | 2800 nM | – |
| CCC1CN(Cc2cc(-c3cc4cc(C)cc(OC)c4s3)c3c(N)ncnn23)CCN1 (stereo not shown) [Example 36] | – | 18.3% | 17 nM | – |
| COc1cc(C)cc2cc(-c3cc(CN4CCCNCC4)n4ncnc(N)c34)sc12 [Example 48] | – | 16.9% | 28.9 nM | – |
| COc1cc(C)cc2cc(-c3cc(CN(C)C4CCN(C)C4)n4ncnc(N)c34)sc12 (stereo not shown) [Example 46] | – | 26.3% | 20.8 nM | – |
| COc1cc(C)cc2cc(-c3cc(CN4CCN(C(=O)C5CCC5)CC4)n4ncnc(N)c34)sc12 [Example 94, (4-{[4-Amino-5-(7-methoxy-5-methyl-1-benzothiophen-2-yl)pyrrolo[2,1-f][1,2,4]triazin-7-yl]-methyl}piperazin-1-yl)(cyclobutyl)methanone] | – | 44.7% | 68.1 nM | – |
| COc1cc(C)cc2cc(-c3cc(CN4CCNC(C(C)(C)C)C4)n4ncnc(N)c34)sc12 (stereo not shown) [Example 49] | – | 1.3% | 58.9 nM | – |
| COc1cc(C)cc2cc(-c3cc(CNC4CCCNC4=O)n4ncnc(N)c34)sc12 (stereo not shown) [Example 37] | – | 13.4% | 44.9 nM | – |
| Nc1nccn2c(C3CCNCC3)nc(-c3cc4ccccc4[nH]3)c12 [WO 2007/061737 Example 25, reference compound] | 1200 nM | – | 880 nM | – |
| COc1cc(C)cc2cc(-c3cc(CNC4CCCN(C)C4)n4ncnc(N)c34)sc12 (stereo not shown) [Example 43] | – | 13.8% | 50.6 nM | – |
| COc1cc(C)cc2cc(-c3cc(CN4CCN(C)CC4)n4ncnc(N)c34)sc12 [Example 12, 5-(7-Methoxy-5-methyl-1-benzothiophen-2-yl)-7-[(4-methylpiperazin-1-yl)methyl]pyrrole[2,1-f]-[1,2,4]triazin-4-amine bis(formiate)] | – | 11.4% | 39.1 nM | – |
| COc1cc(C)cc2cc(-c3cc(CN4CCNC(C(=O)O)C4)n4ncnc(N)c34)sc12 (stereo not shown) [Example 38] | – | 11.2% | 45.7 nM | – |
